Measured values reported in US8987195B2 (priority 2012, dated 2015).
pEC50: −log10 of the molar value. Where two headings read alike, the source gives them in different places.

Assays:
[1] = test system: HCV genotype 1b replicon; assay: HCV replicon assay, genotype 1b replicon EC50; type: cell-based, Hepatitis C virus; details: Hepatitis C virus, genotype 1b replicon, read-out: EC50 [gt-1b]
In short: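 Cells harbouring a stable replicon are grown under G418 selection, then plated with test compound in G418-free medium for 24-48 hours. After washing and lysis, RNA or luciferase signal is measured and expressed as percent of DMSO control to give EC50.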

[2] = molecular target: HCV NS3/4A protease genotype 1b (Hepatitis C virus genotype 1b, UniProt P26663); assay: HCV NS3/4A protease time-resolved fluorescence (TRF) assay, Ki against genotype 1b; type: biochemical; details: IC50 [gt-1b] (nM), NS3/4A genotype 1b, enzyme 0.2 nM
In short: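 First, protease (genotype 1b 0.2 nM, A156T 0.4 nM, genotype 3a 0.025 nM) is preincubated 30 min with inhibitor. Next, 25 nM TRF substrate starts the reaction, run 2.5 h at room temperature. Finally, europium fluorescence is read and Ki calculated from IC50.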

SMILES	pEC50 [1]	IC50 [2]	further results
COc1ccc2nc(C(F)F)c3c(c2c1Cl)CC[C@]1(C[C@H]2C(=O)N[C@]4(C(=O)NS(=O)(=O)C5(C)CC5)C[C@H]4/C=C\CCCCC[C@H](NC(=O)OC(C)(C)C)C(=O)N2C1)O3 [Example 28, tert-Butyl [(2R,6S,12Z,13aS,14aR,16aS)-10′-chloro-5′-(difluoromethyl)-9′-methoxy-14a-{[(1-methylcyclopropyl)sulfonyl]carbamoyl}-5,16-dioxo-1,1′,2′,5,6,7,8,9,10,11,13a,14,14a,15,16,16a-hexadecahydrospiro[cyclopropa[e]pyrrolo[1,2-a][1,4]diazacyclopentadecine-2,3′-pyrano[2,3-c]quinolin]-6-yl]carbamate]	7.83	0.016 nM	
CC(C)(C)OC(=O)N[C@H]1CCCCC/C=C\[C@@H]2C[C@@]2(C(=O)NS(=O)(=O)C2(C)CC2)NC(=O)[C@@H]2C[C@]3(CCc4c(c(C5CC5)nc5ccc6c(c45)OCO6)O3)CN2C1=O [Example 29, tert-butyl (2′R,6′S,13a′S,14a′R,16a′S,Z)-7-cyclopropyl-14a′-(1-methylcyclopropylsulfonylcarbamoyl)-5′,16′-dioxo-3′,5′,6′,7′,8′,9′,10,10′,11,11′,13a′,14′, 14a′,15′,16′,16a′-hexadecahydro-1′H-spiro[[1,3]dioxolo[4,5-f]pyrano[2,3-c]quinoline-9,2′-cyclopropa[e]pyrrolo[1,2-a][1,4]diazacyclopentadecine]-6′-ylcarbamate]	9.22	0.021 nM	
CC(C)(C)OC(=O)N[C@H]1CCCCC/C=C\[C@@H]2C[C@@]2(C(=O)NS(=O)(=O)C2(C)CC2)NC(=O)[C@@H]2C[C@]3(CCc4c(c(C(F)(F)F)nc5c(Cl)cccc45)O3)CN2C1=O [Example 31, tert-butyl ((2R,6S,13aS,14aR,16aS,Z)-7′-chloro-14a-(((1-methylcyclopropyl)sulfonyl)carbamoyl)-5,16-dioxo-5′-(trifluoromethyl)-1′,2′,3,5,6,7,8,9,10,11,13a,14,14a,15, 16,16a-hexadecahydro-1H-spiro[cyclopropa[e]pyrrolo[1,2-a][1,4]diazacyclopentadecine-2,3′-pyrano[2,3-c]quinolin]-6-yl)carbamate]	8.81	0.02 nM	
COc1ccc2nc(C(F)(F)F)c3c(c2n1)C(F)C[C@]1(C[C@H]2C(=O)N[C@]4(C(=O)NS(=O)(=O)C5(C)CC5)C[C@H]4/C=C\CCCCC[C@H](NC(=O)OC(C)(C)C)C(=O)N2C1)O3 (stereo partly drawn) [Example 33, tert-butyl ((2S,6S,13aS,14aR,16aS,Z)-10′-fluoro-2′-methoxy-14a-(((1-methylcyclopropyl)sulfonyl)carbamoyl)-5,16-dioxo-6′-(trifluoromethyl)-3,5,6,7,8,9,9′,10,10′, 11,13a,14,14a,15,16,16a-hexadecahydro-1H-spiro[cyclopropa[e]pyrrolo[1,2-a][1,4]diazacyclopentadecine-2,8′-pyrano[2,3-c][1,5]naphthyridin]-6-yl)carbamate]	8.78	0.042 nM	
COc1ccc2nc(C)c3c(c2c1)CC[C@]1(C[C@H]2C(=O)N[C@]4(C(=O)NS(=O)(=O)C5(C)CC5)C[C@H]4CCCCCCC[C@H](NC(=O)OC(C)(C)C)C(=O)N2C1)O3 [Example 34, tert-Butyl ((2R,6S,13aR,14aR,16aS)-9′-methoxy-5′-methyl-14a-(((1-methylcyclopropyl)sulfonyl)carbamoyl)-5,16-dioxo-1′,2′,3,5,6,7,8,9,10,11,12,13,13a,14,14a,15, 16,16a-octadecahydro-1H-spiro[cyclopropa[e]pyrrolo[1,2-a][1,4]diazacyclopentadecine-2,3′-pyrano[2,3-c]quinolin]-6-yl)carbamate]	8.75	0.013 nM	
COc1ccc2nc(C)c3c(c2c1)CC[C@]1(C[C@H]2C(=O)N[C@]4(C(=O)NS(=O)(=O)C5(C)CC5)C[C@H]4CCCCCCC[C@H](NC(=O)OC(C)(C)C(F)(F)F)C(=O)N2C1)O3 [Example 35]		0.016 nM	pEC50 ([1]; GETYPE1B|GT1B): 8.77
CCc1nc2ccc(OC)cc2c2c1O[C@]1(C[C@H]2F)C[C@H]2C(=O)N[C@]3(C(=O)NS(=O)(=O)C4(C)CC4)C[C@H]3/C=C\CCCCC[C@H](NC(=O)OCC(C)(C)C)C(=O)N2C1 [Example 36, Neopentyl((1′R,2S,6S,13aS,14aR,16aS,Z)-5′-ethyl-1′-fluoro-9′-methoxy-14a-(((1-methylcyclopropyl)sulfonyl)carbamoyl)-5,16-dioxo-1′,2′,3,5,6,7,8,9,10,11,13a,14,14a, 15,16,16a-hexadecahydro-1H-spiro[cyclopropa[e]pyrrolo[1,2-a][1,4]diazacyclopentadecine-2,3′-pyrano[2,3-c]quinolin]-6-yl)carbamate]	8.92	0.009 nM	
CC(C)(C)OC(=O)N[C@H]1CCCCC/C=C\[C@@H]2C[C@@]2(C(=O)NS(=O)(=O)C2(C)CC2)NC(=O)[C@@H]2C[C@]3(CCc4c(c(CN5CCOCC5)nc5ccccc45)O3)CN2C1=O [Example 38, tert-butyl ((2R,6S,13aS,14aR,16aS,Z)-14a-(((1-methylcyclopropyl)sulfonyl)carbamoyl)-5′-(morpholinomethyl)-5,16-dioxo-1′,2′,3,5,6,7,8,9,10,11,13a,14,14a,15,16,16a-hexadecahydro-1H-spiro[cyclopropa[e]pyrrolo[1,2-a][1,4]diazacyclopentadecine-2,3′-pyrano[2,3-c]quinolin]-6-yl)carbamate]	7.66	0.058 nM	
Cc1nc2ccc(Cl)cc2c2c1O[C@]1(CC2)C[C@H]2C(=O)N[C@]3(C(=O)NS(=O)(=O)C4(C)CC4)C[C@H]3/C=C\CCCCC[C@H](NC(=O)OC(C)(C)C)C(=O)N2C1 [Example 39, tert-Butyl ((2R,6S,13aS,14aR,16aS,Z)-9′-chloro-5′-methyl-14a-(((1-methylcyclopropyl)sulfonyl)carbamoyl)-5,16-dioxo-1′,2′,3,5,6,7,8,9,10,11,13a,14,14a,15,16,16a-hexadecahydro-1H-spiro[cyclopropa[e]pyrrolo[1,2-a][1,4]diazacyclopentadecine-2,3′-pyrano[2,3-c]quuinolin]-6-yl)carbamate]	9.23	0.004 nM	
Cc1nc2ccc(Cl)cc2c2c1O[C@]1(CC2)C[C@H]2C(=O)N[C@]3(C(=O)NS(=O)(=O)C4(C)CC4)C[C@H]3/C=C\CCCCC[C@H](NC(=O)OCC(C)(C)C)C(=O)N2C1 [Example 40, Neopentyl((2R,6S,13aS,14aR,16aS,Z)-9′-chloro-5′-methyl-14a-(((1-methylcyclopropyl)sulfonyl)carbamoyl)-5,16-dioxo-1′,2′,3,5,6,7,8,9,10,11,13a,14,14a,15,16,16a-hexadecahydro-1H-spiro[cyclopropa[e]pyrrolo[1,2-a][1,4]diazacyclopentadecine-2,3′-pyrano[2,3-c]quinolin]-6-yl)carbamate]			pEC50 ([1]; K+ salt): 8.27; IC50 ([2]; K+ salt): 0.005 nM
Cc1nc2ccc(Cl)cc2c2c1O[C@]1(CC2)C[C@H]2C(=O)N[C@]3(C(=O)NS(=O)(=O)C4(C)CC4)C[C@H]3/C=C\CCCCC[C@H](NC(=O)OCC3(C)CC3)C(=O)N2C1 [Example 41]			pEC50 ([1]; GETYPE1B|GT1B, K+ salt): 7.79; IC50 ([2]; K+ salt): 0.007 nM
Cc1ccc2nc(C)c3c(c2c1)CC[C@]1(C[C@H]2C(=O)NC4(C(=O)NS(=O)(=O)C5(C)CC5)C[C@H]4/C=C\CCCCC[C@H](NC(=O)OC(C)(C)C)C(=O)N2C1)O3 (stereo partly drawn) [Example 42, tert-Butyl (1aR,3aS,3′R,9S,16aS,Z)-5′,9′-dimethyl-1a-(1-methylcyclopropylsulfonylcarbamoyl)-3,8-dioxo-1a,1′,2,2′,3,3a,4,6,8,9,10,11,12,13,14,16a-hexadecahydro-1H -spiro[cyclopropa[e]pyrrolo[1,2-a][1,4]diazacyclopentadecine-5,3′-pyrano[2,3-c]quinoline]-9-ylcarbamate]	8.59	0.008 nM	
Cc1nc2ccc(F)cc2c2c1O[C@]1(CC2)C[C@H]2C(=O)N[C@]3(C(=O)NS(=O)(=O)C4(C)CC4)C[C@H]3/C=C\CCCCC[C@H](NC(=O)OC(C)(C)C)C(=O)N2C1 [Example 43, tert-Butyl (1aR,3aS,3′R,9S,16aS,Z)-9′-fluoro-5′-methyl-1a-(1-methylcyclopropylsulfonylcarbamoyl)-3,8-dioxo-1a,1′,2,2′,3,3a,4,6,8,9,10,11,12,13,14,16a-hexadecahydro-1H-spiro[cyclopropa[e]pyrrolo[1,2-a][1,4]diazacyclopentadecine-5,3′-pyrano[2,3-c]quinoline]-9-ylcarbamate]	8.90	0.005 nM	
Cc1nc2c(C(F)(F)F)cccc2c2c1O[C@]1(CC2)C[C@H]2C(=O)N[C@]3(C(=O)NS(=O)(=O)C4(C)CC4)C[C@H]3/C=C\CCCCC[C@H](NC(=O)OC(C)(C)C)C(=O)N2C1 [Example 44, tert-Butyl (1aR,3aS,3′R,9S,16aS,Z)-5′-methyl-1a-(1-methylcyclopropylsulfonylcarbamoyl)-3,8-dioxo-7′-(trifluoromethyl)-1a,1′,2,2′,3,3a,4,6,8,9,10,11,12,13,14,16a-hexadecahydro-1H-spiro[cyclopropa[e]pyrrolo[1,2-a][1,4]diazacyclopentadecine-5,3′-pyrano[2,3-c]quinoline]-9-ylcarbamate]	8.80	0.104 nM	
